# Results taken from PMC3625590, “NBM-T-L-BMX-OS01, Semisynthesized from Osthole, Is a Novel Inhibitor of Histone Deacetylase and Enhances Learning and Memory in Rats” (Evidence-based Complementary and Alternative Medicine : eCAM, 2013).
# Tests used:
# [1] = design: method as in PMID 20010553; conditions: cited from earlier work
# CREB = CREB phosphorylation at Ser133 in hippocampal cultured neurons; format: cell-based, Sprague-Dawley rats
# Procedure: The primary hippocampal culture was prepared as described previously. To culture embryonic hippocampal primary neurons, pregnant Sprague-Dawley rats were purchased from the National Laboratory Center in Taiwan. The hippocampal tissue from the embryos of the Sprague-Dawley rats (E19) was dissociated with 100 U/mL of papain (Sigma-Aldrich) and plated onto poly-L-lysine-coated coverslips at a density of 1 × 10^4 cells/cm^2 with a minimal essential medium containing 5% calf serum, 5% horse serum, and 50 ng/mL insulin-transferrin-selenite (Sigma-Aldrich). Three hours after plating, the medium was replaced with 2% of a B27-neurobasal medium (Invitrogen, Carlsbad, CA, USA) containing 0.5 mM glutamine and 12.5 μM glutamate.
# The hippocampus tissue and primary hippocampal cells were lysed and sonicated in an RIPA buffer (50 mM Tris-HCl (pH 7.4), 150 mM NaCl, 2 mM EDTA, 1% IGEPAL CA-630, 1 mM phenylmethylsulfonyl fluoride (PMSF), 20 μg/mL pepstatin A, 20 μg/mL leupeptin, 20 μg/mL aprotinin, 50 mM NaF, and 1 mM Na3VO4). The protocol was performed as described previously. The lysate was resolved by 8% SDS-PAGE. […] The protein bands were quantified using the NIH Image J Software.
# HDAC8 [2] = assay: HDAC8 activity assay (Fluor-de-Lys) in brain nuclear extracts after behavioural tests; format: in vivo, Sprague-Dawley rats; conditions: 5 mg/kg/d i.p., compared with trained-control animals
# Procedure: For the HDAC8 activity assay, the deacetylase activity of HDAC8 was measured using the commercially available Fluor-de-Lys-HDAC8 deacetylase substrate (Enzo, New York, NY, USA) according to the manufacturer instructions. […] The homogenate was centrifuged at 1000 ×g for 10 min to obtain the nuclei pellet. […] To determine the HDAC activity, 10 μg of nuclear extracts was incubated with a specific substrate (100 μM) for 30 min at 37°C, followed by the addition of a developer solution for 30 min at 37°C. […] Data were normalized to swimming control, footshock control, and nontrained-control animals.
# Sco-induced amnesia rats = assay: Novel object recognition, Sco-induced memory impairment; format: in vivo, Sprague-Dawley rats; conditions: Sco 1.5 mg/kg/d; BMX or SAHA 5 mg/kg/d i.p.; 8 h
# Procedure: SAHA was supplied by NatureWise Biotech and Medicals Corporation (Taipei, Taiwan). […] (St. Louis, MO, USA). The BMX and SAHA stock (100 mg/mL) was dissolved in DMSO and diluted with saline to a final concentration of 0.5 mg/mL (in 0.5% DMSO/saline). […] SD rats were randomly divided into 3 groups. For the naïve animal experiments, the BMX-injected or SAHA-injected groups were injected with BMX (5 mg/kg/d) or SAHA (5 mg/kg/d) intraperitoneally 7 d prior to behavioral experiments and during the experimentation. The control group received the 0.5% DMSO/saline injection. The injection volume was 10 μL/g of body weight. The injections were performed once per day. For the amnesia experiment, the protocol was adopted from previous studies with modifications. […] The control group received the 0.5% DMSO/saline injection. The injection volume was 10 μL/g of body weight. […] The method used was adopted from that of a previous study with modifications. During familiarization, rats were allowed to explore 2 identical objects in an open field box (90 × 70 × 60 cm) for 5 min. The criteria used for exploration were a distance less than 1.5 cm between the rat and the object or direct contact with the object. […] The time that each rat spent exploring the 2 objects during a 5 min period was recorded. […]
# HDAC8 [3] = target: T1, HDAC8 (Homo sapiens, UniProt Q9BY41); conditions: cited from earlier work
# T1 sequence (Q9BY41 1-377): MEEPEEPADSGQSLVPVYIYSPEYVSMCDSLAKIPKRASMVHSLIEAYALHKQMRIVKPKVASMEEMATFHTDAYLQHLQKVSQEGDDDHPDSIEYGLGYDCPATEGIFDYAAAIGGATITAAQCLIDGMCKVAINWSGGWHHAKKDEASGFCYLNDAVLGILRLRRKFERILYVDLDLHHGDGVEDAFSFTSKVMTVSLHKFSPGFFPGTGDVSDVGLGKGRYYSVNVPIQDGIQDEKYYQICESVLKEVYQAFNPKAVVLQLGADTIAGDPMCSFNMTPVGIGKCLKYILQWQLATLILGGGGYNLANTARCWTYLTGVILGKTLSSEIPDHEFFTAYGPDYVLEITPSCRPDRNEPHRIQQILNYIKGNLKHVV
compound,measurement,setting,value
"O=C(CCCCCCC(=O)Nc1ccccc1)NO [SAHA, suberoylanilide hydroxamic acid, reference compound]",crossing of the blood-brain barrier,[1],cross the blood-brain barrier (BBB)
same,CREB phosphorylation at Ser133,CREB,increased CREB phosphorylation at Ser133
same,HDAC8 activity in amygdala,HDAC8 [2]; 7 days after footshock,did not have increased HDAC8 activity
same,HDAC8 activity in hippocampus,HDAC8 [2]; after novel object recognition task,did not have further increased HDAC8 activity
same,HDAC8 activity in hippocampus,HDAC8 [2]; after water-maze probe trial,did not increase HDAC8 activity
same,exploratory preference for the novel object (NO),Sco-induced amnesia rats,showed no exploratory preference for the NO
same,inhibition of HDAC8 deacetylase activity,HDAC8 [3],little inhibition of HDAC8
